Test results as given in ChEMBL document CHEMBL5120746, “Novel 5-fluorouracil sensitizers for colorectal cancer therapy: Design and synthesis of S1P receptor 2 (S1PR2) antagonists” (Eur J Med Chem, 2022).
Calls of active or inactive are those of the source. The rule behind the calls is not given here.

Key:
SW620/5-FU [1] = experiment: Reversal of 5-FU resistance against human SW620/5-FU cells assessed as reduction in cell viability incubated for 48 hrs in presence of 5-FU by MTT assay; format: functional, cell-based
NCM460 [2] = experiment: Cytotoxicity against human NCM460 cells assessed as reduction in cell viability at 5 to 80 uM; format: toxicity, cell-based; conditions: ncm460, 80 µM, dose 5-80 µM
NCM460 [3] = experiment: Cytotoxicity against human NCM460 cells assessed as reduction in cell viability at 5 to 80 uM in presence of 5-fluorouracil; format: toxicity, cell-based; conditions: ncm460, 80 µM, dose 5-80 µM
SW620/5-FU [4] = experiment: Downregulation of DPD expression level in human SW620/5-FU cells measured after 12 hrs by Western blot analysis; format: functional, cell-based; conditions: dose 5-40 µM, DDE = dose-dependent effect
SW620/5-FU [5] = experiment: Downregulation of DPD expression in human SW620/5-FU cells at 10 uM by Western blot analysis; format: functional, cell-based; conditions: time 4-48 hrs, TDE = time-dependent effect
[6] = Downregulation of S1PR2 mRNA expression level in human SW620/5-FU cells at 20 uM measured after 24 hrs by qRT-PCR analysis; format: functional
[7] = Downregulation of S1PR2 mRNA expression level in DPD expressed human HCT-116 cells at 20 uM measured after 24 hrs by qRT-PCR analysis; format: functional
[8] = target: Sphingosine 1-phosphate receptor 2 (Homo sapiens, UniProt O95136); experiment: Antagonist activity at S1PR2 in human SW620/5-FU cells assessed as reduction of DPD-catalyzed 5-FU degradation by measuring intracellular 5-FU level at 20 uM measured after 24 hrs by HPLC-UV analysis; format: functional, cell-based; conditions: filed as antagonist
Chain of Sphingosine 1-phosphate receptor 2 (O95136 whole entry): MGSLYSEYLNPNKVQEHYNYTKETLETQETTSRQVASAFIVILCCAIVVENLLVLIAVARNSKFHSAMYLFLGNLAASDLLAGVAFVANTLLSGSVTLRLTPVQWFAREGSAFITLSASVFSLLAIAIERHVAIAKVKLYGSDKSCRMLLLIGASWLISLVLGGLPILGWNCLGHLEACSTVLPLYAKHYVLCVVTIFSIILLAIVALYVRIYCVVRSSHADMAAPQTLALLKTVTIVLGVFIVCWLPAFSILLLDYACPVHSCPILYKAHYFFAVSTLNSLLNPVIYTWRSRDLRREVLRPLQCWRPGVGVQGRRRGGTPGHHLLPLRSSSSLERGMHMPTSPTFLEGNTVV

[9] = Apparent volume of distribution in Sprague-Dawley rat blood at 1 mg/kg, iv measured up to 24 hrs by HPLC-MS/MS analysis; format: ADME, organism-based; conditions: read-out: Vd(app)
[10] = Clearance in Sprague-Dawley rat blood at 1 mg/kg, iv measured up to 24 hrs by HPLC-MS/MS analysis; format: ADME, organism-based
[11] = MRT (0 to t) in Sprague-Dawley rat blood at 1 mg/kg, iv measured up to 24 hrs by HPLC-MS/MS analysis; format: ADME, organism-based
[12] = Initial drug concentration in Sprague-Dawley rat plasma at 1 mg/kg, iv measured up to 24 hrs by HPLC-MS/MS analysis; format: ADME, organism-based
[13] = Half life in Sprague-Dawley rat plasma at 1 mg/kg, iv measured up to 24 hrs by HPLC-MS/MS analysis; format: ADME, organism-based; conditions: in vivo
[14] = AUC (0 to t) in Sprague-Dawley rat plasma at 1 mg/kg, iv measured up to 24 hrs by HPLC-MS/MS analysis; format: ADME, organism-based; parameters: dose 1 mg/kg, time < 24 hrs, route iv
[15] = AUC (0 to infinity) in Sprague-Dawley rat plasma at 1 mg/kg, iv measured up to 24 hrs by HPLC-MS/MS analysis; format: ADME, organism-based; parameters: dose 1 mg/kg, time < 24 hrs, route iv
[16] = Clearance in Sprague-Dawley rat plasma at 1 mg/kg, iv measured up to 24 hrs by HPLC-MS/MS analysis; format: ADME, organism-based; conditions: in vivo
[17] = MRT (0 to t) in Sprague-Dawley rat plasma at 1 mg/kg, iv measured up to 24 hrs by HPLC-MS/MS analysis; format: ADME, organism-based
[18] = MRT (0 to infinity) in Sprague-Dawley rat plasma at 1 mg/kg, iv measured up to 24 hrs by HPLC-MS/MS analysis; format: ADME, organism-based
[19] = Toxicity in SPF nude mouse xenografted with DPD expressed human HCT-116 cells assessed as change in body weight at 15 mg/kg, iv QD for 20 days and measured every 4 days; format: organism-based; conditions: in vivo, 480 h, time 20 day
[20] = Toxicity in SPF nude mouse xenografted with human SW620/5-FU cells assessed as change in body weight at 7.5 mg/kg, iv QD for 21 days and measured every 4 days in presence of 5-fluorouracil; format: organism-based; conditions: in vivo, 504 h, time 21 day
HCT-116 = experiment: Antitumor activity against DPD expressed human HCT-116 cells xenografted in SPF nude mouse assessed as tumor growth inhibition at 15 mg/kg, iv QD for 20 days and measured every 4 days in presence of 5-fluorouracil; format: functional; conditions: HCT-116, 480 h, time 20 day, read-out: TGI
SW620/5-FU [21] = experiment: Antitumor activity against human SW620/5-FU cells xenografted in SPF nude mouse assessed as tumor growth inhibition at 7.5 mg/kg, iv QD for 21 days and measured every 4 days; format: functional; conditions: 504 h, time 21 day, read-out: TGI
SW620/5-FU [22] = experiment: Antitumor activity against human SW620/5-FU cells xenografted in SPF nude mouse assessed as tumor growth inhibition at 7.5 mg/kg, iv QD for 21 days and measured every 4 days in presence of 5-fluorouracil; format: functional; conditions: 504 h, time 21 day, read-out: TGI
SW620/5-FU [23] = experiment: Antitumor activity against human SW620/5-FU cells xenografted in SPF nude mouse assessed as tumor growth inhibition at 15 mg/kg, iv QD for 21 days and measured every 4 days in presence of 5-fluorouracil; format: functional; conditions: 504 h, time 21 day, read-out: TGI
SW620/5-FU [24] = experiment: Antitumor activity against human SW620/5-FU cells xenografted in SPF nude mouse assessed as tumor growth inhibition at 30 mg/kg, iv QD for 21 days and measured every 4 days in presence of 5-fluorouracil; format: functional; conditions: 504 h, time 21 day, read-out: TGI
SW620/5-FU [25] = experiment: Antitumor activity against human SW620/5-FU cells xenografted in SPF nude mouse assessed as reduction in tumor weight at 7.5 mg/kg, iv QD for 21 days; format: functional; parameters: scale not given: the % may be the effect or the level left; conditions: time 21 day
SW620/5-FU [26] = experiment: Antitumor activity against human SW620/5-FU cells xenografted in SPF nude mouse assessed as reduction in tumor weight at 7.5 mg/kg, iv QD for 21 days in presence of 5-fluorouracil; format: functional; parameters: scale not given: the % may be the effect or the level left; conditions: time 21 day
SW620/5-FU [27] = experiment: Antitumor activity against human SW620/5-FU cells xenografted in SPF nude mouse assessed as reduction in tumor weight at 15 mg/kg, iv QD for 21 days in presence of 5-fluorouracil; format: functional; parameters: scale not given: the % may be the effect or the level left; conditions: time 21 day
SW620/5-FU [28] = experiment: Antitumor activity against human SW620/5-FU cells xenografted in SPF nude mouse assessed as reduction in tumor weight at 30 mg/kg, iv QD for 21 days in presence of 5-fluorouracil; format: functional; parameters: scale not given: the % may be the effect or the level left; conditions: time 21 day
[29] = Downregulation of DPD expression in tumor of SPF nude mouse xenografted with human SW620/5-FU cells at 30 mg/kg, iv QD for 21 days in presence of 5-fluorouracil by Western blot analysis; format: functional; conditions: time 21 day
Mus musculus [30] = experiment: Downregulation of DPD expression in liver of SPF nude mouse xenografted with human SW620/5-FU cells at 15 to 30 mg/kg, iv QD for 21 days in presence of 5-fluorouracil by Western blot analysis; format: functional, organism-based; conditions: dose 15-30 mg/kg, time 21.0 day
Mus musculus [31] = experiment: Downregulation of DPD expression in tumor of SPF nude mouse xenografted with human SW620/5-FU cells at 7.5 to 15 mg/kg, iv QD for 21 days by immunohistochemical analysis; format: functional, organism-based; conditions: dose 7.5-15 mg/kg, time 21.0 day
Mus musculus [32] = experiment: Downregulation of S1PR2 expression in tumor SPF nude mouse xenografted with human SW620/5-FU cells at 7.5 to 15 mg/kg, iv QD for 21 days by immunohistochemical analysis; format: functional, organism-based; conditions: dose 7.5-15 mg/kg, time 21.0 day

Structure (SMILES): Cn1ncc2c(-c3ccc(F)cc3)cc(NNC(=O)Nc3cc(Cl)nc(Cl)c3)nc21
- EC50 (SW620/5-FU [1]): 9.15 µM
- Activity (NCM460 [2]): Toxic
- Activity (NCM460 [3]): Toxic
- Activity (SW620/5-FU [4]): Dde
- Activity (SW620/5-FU [5]): Tde
- Activity [6]: 25%
- Activity [7]: 25%
- Activity [8]: 7.8 µM
- Vd [9]: 1.8 L/kg
- clearance [10]: 1.5 mL/min/kg
- MRT last at 24 h [11]: 7.9 h
- C0 at 24 h [12]: 4040 ng/mL
- t1/2 [13]: 4.4 h
- AUC(0-t) at 24 h [14]: 10100 ng·h/mL
- AUC(0-inf) [15]: 11700 ng·h/mL
- CL [16]: 1.5 mL/min/kg
- MRT last at 24 h [17]: 7.6 h
- MRT inf [18]: 8.3 h
- Activity [19]: Non-Toxic
- Activity [20]: Non-Toxic
- inhibition in vivo at 15 mg/kg (HCT-116): 70.1%
- inhibition in vivo at 7.5 mg/kg (SW620/5-FU [21]): 14.7%
- inhibition in vivo at 7.5 mg/kg (SW620/5-FU [22]): 43.2%
- inhibition in vivo at 15 mg/kg (SW620/5-FU [23]): 52%
- inhibition in vivo at 30 mg/kg (SW620/5-FU [24]): 62.1%
- Activity (SW620/5-FU [25]): 8.68%
- Activity (SW620/5-FU [26]): 47.79%
- Activity (SW620/5-FU [27]): 51.72%
- Activity (SW620/5-FU [28]): 60.81%
- Activity [29]: 0.05
- Activity (Mus musculus [30]): Active
- Activity (Mus musculus [31]): Active
- Activity (Mus musculus [32]): Active
